Test results reported in ChEMBL document CHEMBL3822434 (Bioorg Med Chem, 2016).
Converted amounts (≈) assume the structure as drawn.

Experiments:
[1] = Intrinsic clearance in human liver microsomes at 1 uM after 30 mins in presence of NADPH by LC-MS/MS analysis; type: ADME; conditions: read-out: CLH
[2] = Solubility in fasted state simulated intestinal fluid irradiated ultrasonically for 10 mins followed by incubation for 24 hrs by HPLC-UV analysis; type: ADME
[3] = Solubility in 50 mM phosphate buffer at pH 6.5 irradiated ultrasonically for 10 mins followed by incubation for 24 hrs by HPLC-UV analysis; type: physicochemical
[4] = biological target: T1, Mitogen-activated protein kinase kinase kinase 7 (Homo sapiens, UniProt O43318); assay: Inhibition of recombinant TAK1 (unknown origin)
T1 sequence (O43318 whole entry): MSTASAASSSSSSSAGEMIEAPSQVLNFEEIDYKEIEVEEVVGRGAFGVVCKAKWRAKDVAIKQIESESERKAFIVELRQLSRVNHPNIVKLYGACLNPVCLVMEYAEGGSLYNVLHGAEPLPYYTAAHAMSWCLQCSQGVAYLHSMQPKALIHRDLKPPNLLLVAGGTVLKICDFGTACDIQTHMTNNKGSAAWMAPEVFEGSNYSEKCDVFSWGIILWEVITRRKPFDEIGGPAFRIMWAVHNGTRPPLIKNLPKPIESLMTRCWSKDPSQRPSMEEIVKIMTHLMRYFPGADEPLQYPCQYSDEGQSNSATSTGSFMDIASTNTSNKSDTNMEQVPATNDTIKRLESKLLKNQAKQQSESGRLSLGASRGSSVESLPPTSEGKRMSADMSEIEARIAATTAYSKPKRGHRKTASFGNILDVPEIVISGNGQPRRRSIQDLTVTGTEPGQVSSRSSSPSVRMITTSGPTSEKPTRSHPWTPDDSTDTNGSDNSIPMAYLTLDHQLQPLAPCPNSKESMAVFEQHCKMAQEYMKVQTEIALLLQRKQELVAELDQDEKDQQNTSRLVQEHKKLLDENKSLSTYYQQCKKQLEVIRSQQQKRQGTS

[5] = biological target: T1, Mitogen-activated protein kinase kinase kinase 7; assay: Inhibition of TAK1 (unknown origin)
[6] = biological target: T1, Mitogen-activated protein kinase kinase kinase 7; assay: Inhibition of human recombinant TAK1 fused with TAB1 using MKK6 as substrate in presence of gamma-[33P]ATP
Liver cytosol [7] = assay: Drug level in human liver cytosol treated with N-(2-Methoxy-4-((3-(4-methylpiperazin-1-yl)propyl)carbamoyl)phenyl)thieno[3,2-d]pyrimidine-7-carboxamide after 30 mins in presence of NADPH by LC-MS/MS analysis; type: ADME, tissue-based; conditions: 0.5 h
[8] = Drug level in mouse liver cytosol treated with N-(2-Methoxy-4-((3-(4-methylpiperazin-1-yl)propyl)carbamoyl)phenyl)thieno[3,2-d]pyrimidine-7-carboxamide after 30 mins in presence of NADPH by LC-MS/MS analysis; type: ADME, tissue-based; conditions: 0.5 h
[9] = biological target: T1, Mitogen-activated protein kinase kinase kinase 7; assay: Inhibition of recombinant FLAG-tagged TAK1 kinase domain (unknown origin) expressed in baculovirus expression system coexpressing TAB using biotin-labeled MKK6kd substrate incubated for 1 hr by AlphaScreen assay
[10] = Apparent permeability in human Caco2 cells; type: ADME, cell-based; conditions: Caco-2
[11] = Intrinsic clearance in mouse liver microsomes at 1 uM after 30 mins in presence of NADPH by LC-MS/MS analysis; type: ADME; conditions: read-out: CLH
Liver cytosol [12] = assay: Drug metabolism in human liver cytosol at 1 uM assessed as N-(2-Methoxy-4-((3-(4-methylpiperazin-1-yl)propyl)carbamoyl)phenyl)-4-oxo-3,4-dihydrothieno[3,2-d]pyrimidine-7-carboxamide formation after 30 mins in presence of NADPH by LC-MS/MS analysis; type: ADME; conditions: 0.5 h
[13] = Drug metabolism in mouse liver cytosol at 1 uM assessed as N-(2-Methoxy-4-((3-(4-methylpiperazin-1-yl)propyl)carbamoyl)phenyl)-4-oxo-3,4-dihydrothieno[3,2-d]pyrimidine-7-carboxamide formation after 30 mins in presence of NADPH by LC-MS/MS analysis; type: ADME; conditions: 0.5 h

SMILES	microsomal CLint at 1 µM [1]	solubility at 24 h [2]	solubility at 24 h [3]	also measured
COc1cc(C(=O)N2CCN(C)CC2)ccc1NC(=O)c1csc2cncnc12	26 µL/min/mg	312 µg/mL (≈ 758 µM)	293 µg/mL (≈ 712 µM)	
Cc1cc(NC(=O)Nc2cc(C(C)(C)C)nn2-c2cccc(C#N)c2)ccc1Oc1ccncc1				IC50 [4]: 156 nM
COc1cc(N2CCN(C)CC2)ccc1NC(=O)c1csc2cncnc12	11 µL/min/mg	351 µg/mL (≈ 915 µM)	353 µg/mL (≈ 921 µM)	
COCCN1CCN(Cc2ccc(-c3cc(NC(N)=O)c(C(N)=O)s3)cc2)CC1				IC50 [5]: 50 nM
COc1cc2ncccc2cc1NC(=O)c1csc2cncnc12		< 3 µg/mL	< 3 µg/mL	
C[C@H]1OC2C3=C(C(=O)[C@@H]4O[C@@H]4[C@H]3O)C1[C@@H]1[C@@H](C)OC=C3[C@H](O)[C@H]4O[C@H]4C(=O)[C@@]321 (stereo partly specified)				IC50 [6]: 20000 nM
COc1cc(C(=O)NCCCN2CCN(C)CC2)ccc1NC(=O)c1csc2c(=O)[nH]cnc12				Drug metabolism (Liver cytosol [7]): metabolite_detected; Drug metabolism [8]: metabolite_detected
CCc1cc(Nc2ncc(F)c(-c3cnc4cccnn34)n2)cc(OCCN2CCC(O)CC2)c1				IC50 [9]: 8 nM
CC(C)Oc1c(NC(=O)c2csc3c(=O)[nH]cnc23)cccc1C(=O)N1CCN(C)CC1				Papp [10]: < 1 ×10⁻⁶ cm/s
COc1cc(C(=O)NCCCN2CCN(C)CC2)ccc1NC(=O)c1csc2cncnc12	21 µL/min/mg	420 µg/mL (≈ 896 µM)	377 µg/mL (≈ 805 µM)	microsomal CLint at 1 µM [11]: 80 µL/min/mg; Drug metabolism (Liver cytosol [12]): metabolite_detected; Drug metabolism [13]: metabolite_detected
